Measurements: patent US4639510A, “(1-S-acetamidomethyl cysteine, 7-alanine)calcitonin” (Armour Pharmaceutical Company, priority 1985, dated 1987)

Tested on: serum calcium concentration
Test: Biological assay of calcitonin analogs in vivo: reduction of serum calcium concentration vs synthetic salmon calcitonin standard
Parameters: species or system Rats
Protocol: Biological Assay Of Calcitonin Analogs In Vivo
The biological potency of [S-Acm-Cys',Ala^7 ]salmon calcitonin was determined by comparing the reduction of serum calcium concentration which followed administration by graded doses of [S-Acm-Cys^1,Ala^7 ]SCT and synthetic salmon calcitonin standard. Rats were divided into four groups of seven animals, and each group was assigned at random to a dose of standard or test solution. Low and high doses were chosen from the linear portion of the dose-response curve. For the salmon calcitonin standard, the values were 0.7 and 2.1 mcg. peptide/100 g. body weight (BW). This dose approximates 3 and 9 MU/100 g. BW. Peptides were given by subcutaneous injection (0.2 ml/100 g. BW) and blood was withdrawn 1 hour later for serum calcium determination. Sera are processed and analyzed within two hours of collection. […]. Results were analyzed by a 2×2 parallel line assay [Gaddum, J. H., J. Pharm. Pharmacol., 6, 345 (1953)]. The standard salmon calcitonin used was independently determined to contain greater than 4,000 IU/mg. [S-Acm-Cys^1,Ala^7 ]SCT assayed at 6300 IU/mg, (95% 5800-6900).

Row | Substance | biological potency of the standard (independently determined content) (standard salmon calcitonin used in the assay, independently determined) | biological potency (rats, subcutaneous injection, serum calcium 1 hour later, 2×2 parallel line assay vs salmon calcitonin standard, 95% 5800-6900)
1 | Salmon calcitonin | greater than 4,000 IU/mg | 
2 | [S-Acm-Cys^1,Ala^7)]salmon calcitonin [[S-Acm-Cys^1,Ala^7]SCT] |  | 6300 IU/mg
